Assay results: patent US20220175761A1, “BI-LIGAND DRUG CONJUGATE AND USE THEREOF” (COHERENT BIOPHARMA (SUZHOU), LIMITED, priority 2019, published 2022)
Numbered stars: 1 amine (or outer) side, 2 acyl side, 3 side chain; on linkers, the order of the positions; unused ones are H or OH. Bridge positions count the residues as written; N and C are the ends. Square brackets hold non-standard residues; d marks the D form. Peptide text beside a SMILES is read from it. I, II: the chains in the order shown. * marks the point of attachment. ξ: configuration not given here. Exatecan = CC[C@@]1(O)C(=O)OCc2c1cc1n(c2=O)Cc2c-1nc1cc(F)c(C)c3c1c2[C@@H](N*)CC3; Hexanoyl(6-succinimido-3yl) = O=C1CC([*:1])C(=O)N1CCCCCC(=O)[*:2]; EuK = O=C(O)CC[C@H](NC(=O)N[C@@H](CCCCN*)C(=O)O)C(=O)O; Pteroyl = Nc1nc2ncc(CNc3ccc(C(=O)*)cc3)nc2c(=O)[nH]1; Dolaproine = CO[C@@H]([C@@H]1CCCN1)[C@@H](C)C(=O)O; Dil = CC[C@H](C)[C@H](NC)[C@@H](CC(=O)O)OC; X3 = O=C1CC([*:2])C(=O)N1CCCCCC(=O)[*:1]; γGlu = O=C(O)[C@H](CCC(=O)[*:2])N[*:1]; PABC = O=C(OCc1ccc(N[*:1])cc1)[*:2]; NHCH2OCH2CO = O=C(COCN[*:1])[*:2]; X1 = C[C@@H](N*)[C@@H](O)c1ccccc1; X2 = O=C(Cc1ccc(CN[*:1])cc1)[*:2]; NMeV = CN[C@H](C(=O)O)C(C)C; ξCit = NC(=O)NCCCC(N)C(=O)O; CO = O=C([*:1])[*:2]; ξV = CC(C)C(N)C(=O)O; ξC = NC(CS)C(=O)O

Experiments:
[1] = system: lung cancer PDX model LU2505; assay: Effectiveness in lung cancer LU2505 model (PDX model); type: in vivo, BALB/c nude mice
Description: The active substance of test sample CBP-1018 is CB-20BK, which is obtained by mixing CB-20BK with auxiliary materials and then lyophilizing same.

[2] = system: lung cancer PDX model LU1206; assay: Effectiveness in lung cancer LU1206 model (PDX model); type: in vivo, BALB/c nude mice
Procedure: BALB/c nude mice bore tumors subcutaneously and, when the tumor volume reached about 150 mm^3, were grouped into: low-dose, medium-dose and high-dose test sample groups, a small molecule MMAE control group, a targeting polypeptide 20BK-SM09 control group, and a blank control group (a total of 6 groups, and 8 mice per group); the mice were administered on day 1, day 8 and day 15 after the grouping; and the observation was continued for 14 days after the last administration.

FOLR1 = target: T1, FOLR1 (Homo sapiens, UniProt P15328); assay: BIAcore T200 binding affinity to FOLR1 (CM5 chip conjugated with FOLR1); conditions: BIAcore T200
T1 construct: purchased R&D System 5646-FR
T1 sequence (P15328 25-233 limits assumed): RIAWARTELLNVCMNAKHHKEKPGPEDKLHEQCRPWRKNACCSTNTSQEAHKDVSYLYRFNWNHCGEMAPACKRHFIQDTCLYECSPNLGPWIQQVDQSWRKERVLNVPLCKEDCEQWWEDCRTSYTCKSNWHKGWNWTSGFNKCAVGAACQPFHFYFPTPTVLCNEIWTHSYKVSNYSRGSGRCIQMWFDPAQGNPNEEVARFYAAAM
Description: Buffer: HBS-EP+ buffer 10× (GE, Cat #: BR100669), diluted 10 folds with deionized water before use.
In the experiment, CM5 chip was conjugated with ligand FOLR1 (R&D System, Cat #: 5646-FR).

[3] = system: LNCaP (human prostate cancer cells); assay: Inhibition of cell line proliferation, CCK8; type: cell-based; conditions: LNCaP
Description: (§1) Since different cells have different sensitivity to a cell proliferation inhibitory toxicity of the payload in a ligand conjugate, the quantitative analysis may be interfered occasionally. A series of cell lines with known expression levels of receptors of different ligands were selected and tested for the response to inhibitory effects of the cell proliferation of a ligand conjugate and a single payload. The IC50 ratio of a single payload to that of a ligand conjugate in same cell line were taken to remove such interference.
Experimental operations: LNCaP and 22RV1 cells were prepared in advance, counted, and plated in 96-well cell culture plates at a cell density of 4×10^4 cells/ml and 2.0×10^4 cells/ml, respectively (100 μl/well); negative control and blank control wells were set on each plate. After adherent cell culture overnight, the diluted samples to be tested were added at 50 μl/well. The plates were placed in an incubator at 37° C., 5% CO2 and cultured for 68-72 hours. To each well, 15 μl (10% of the liquid volume in a well) of a color developing solution from CCK8 was added; and the plates were incubated at 37° C. for 45-70 minutes and each plate was read at 450 nm on a microplate reader. The data was edited using SoftMax Pro and a 4-P fitting curve was plotted. […]

[4] = system: 22RV1 (human prostate cancer cells); assay: Inhibition of cell line proliferation, CCK8; type: cell-based
Description: as §1
(§2) Experimental operations: LNCaP and 22RV1 cells were prepared in advance, counted, and plated in 96-well cell culture plates at a cell density of 4×10^4 cells/ml and 2.0×10^4 cells/ml, respectively (100 μl/well); negative control and blank control wells were set on each plate. After adherent cell culture overnight, the diluted samples to be tested were added at 50 μl/well. The plates were placed in an incubator at 37° C., 5% CO2 and cultured for 68-72 hours. To each well, 15 μl (10% of the liquid volume in a well) of a color developing solution from CCK8 was added; and the plates were incubated at 37° C. for 45-70 minutes and each plate was read at 450 nm on a microplate reader. The data was edited using SoftMax Pro and a 4-P fitting curve was plotted.

[5] = system: MDA-MB-468 (human breast cancer cells); assay: Inhibition of cell line proliferation, CCK8; type: cell-based; conditions: MDA-MB-468, 68-72 hours, CCK8
Procedure: (§3) Experimental Operations: LNCaP, SK-BR-3, MDA-MB-468 and CFPAC-1 cells were prepared in advance and counted; with a culture medium (IMDM+10% FBS+1× L-Glutamine+1×P/S), the cells LNCaP, SK-BR-3, MDA-MB-468 and CFPAC-1 were diluted to 4×10^4 cells/ml; the diluted cell solution was plated in 96-well plates at 100 µl/well; and negative control and blank control wells were set on each plate. After adherent cell culture overnight, the diluted samples to be tested were added at 50 μl/well. The plates were placed in an incubator at 37° C., 5% CO2 and cultured for 68-72 hours. To each well, 15 μl (10% of the liquid volume in a well) of a color developing solution from CCK8 was added; and the plates were incubated at 37° C. for 45-70 minutes and each plate was read at 450 nm on a microplate reader. The data was edited using SoftMax Pro and a 4-P fitting curve was plotted.
as §3, with “Operations: LNCaP, MDA-MB-468, CFPAC-1 and PANC-1” for “Operations: LNCaP, SK-BR-3, MDA-MB-468 and CFPAC-1”, “CFPAC-1 and PANC-1 cells were” for “MDA-MB-468 and CFPAC-1 cells were”, “cells LNCaP, MDA-MB-468 and” for “cells LNCaP, SK-BR-3, MDA-MB-468 and”, “to 4×10^4 cells/ml, and PANC-1 was diluted to 3.0×10^4 cells/ml; the” for “to 4×10^4 cells/ml; the”, “at 100 μl/well; and negative” for “at 100 µl/well; and negative”
(§4) Experimental operations: NCI-H226, CFPAC-1 and MDA-MB-468 cells were prepared in advance and counted; MDA-MB-468 and CFPAC-1 cells were plated at a density of 2×10^4 cells/ml (100 μl/well) and NCI-H226 cells were plated at a density of 1×10^4 cells/ml (100 μl/well) in 96-well plates; and negative control and blank control wells were set on each plate. After adherent cell culture overnight, the diluted samples to be tested were added at 50 μl/well. The plates were placed in an incubator at 37° C., 5% CO2 and cultured for 68-72 hours. To each well, 15 μl (10% of the liquid volume in a well) of a color developing solution from CCK8 was added; and the plates were incubated at 37° C. for 45-70 minutes and each plate was read at 450 nm on a microplate reader. The data was edited using SoftMax Pro and a 4-P fitting curve was plotted.

[6] = system: NCI-H226 (human lung cancer cells); assay: Inhibition of cell line proliferation, CCK8; type: cell-based; conditions: NCI-H226, 68-72 hours, CCK8
Procedure: (§5) Experimental operations: LNCaP, SK-BR-3, NCI-H226, CFPAC-1 and PANC-1 cells were prepared in advance and counted; with a culture medium (IMDM+10% FBS+1× L-Glutamine+1×P/S), the cells LNCaP, SK-BR-3 and CFPAC-1 were diluted to 4×10^4 cells/ml, NCI-H226 was diluted to 2.0×10^4 cells/ml and PANC-1 was diluted to 3.0×10^4 cells/ml; the diluted cell solution was plated in 96-well plates at 100 μl/well; and negative control and blank control wells were set on each plate. After adherent cell culture overnight, the diluted samples to be tested were added at 50 μl/well. The plates were placed in an incubator at 37° C., 5% CO2 and cultured for 68-72 hours. To each well, 15 μl (10% of the liquid volume in a well) of a color developing solution from CCK8 was added; and the plates were incubated at 37° C. for 45-70 minutes and each plate was read at 450 nm on a microplate reader. The data was edited using SoftMax Pro and a 4-P fitting curve was plotted.
as §4

[7] = system: CFPAC-1 (human pancreatic cancer cells); assay: Inhibition of cell line proliferation, CCK8; type: cell-based; conditions: CFPAC-1, 68-72 hours, CCK8
Procedure: as §2, with “PANC-1” for “LNCaP”, “CFPAC-1” for “22RV1”, “cells/ml” for “cells/ml and 2.0×10^4 cells/ml, respectively”
as §5, §3
as §3, with “Operations: LNCaP, MDA-MB-468, CFPAC-1 and PANC-1” for “Operations: LNCaP, SK-BR-3, MDA-MB-468 and CFPAC-1”, “CFPAC-1 and PANC-1 cells were” for “MDA-MB-468 and CFPAC-1 cells were”, “cells LNCaP, MDA-MB-468 and” for “cells LNCaP, SK-BR-3, MDA-MB-468 and”, “to 4×10^4 cells/ml, and PANC-1 was diluted to 3.0×10^4 cells/ml; the” for “to 4×10^4 cells/ml; the”, “at 100 μl/well; and negative” for “at 100 µl/well; and negative”
Experimental operations: NCI-H226, CFPAC-1 and MDA-MB-468 cells were prepared in advance and counted; MDA-MB-468 and CFPAC-1 cells were plated at a density of 2×10^4 cells/ml (100 μl/well) and NCI-H226 cells were plated at a density of 1×10^4 cells/ml (100 μl/well) in 96-well plates; and negative control and blank control wells were set on each plate. After adherent cell culture overnight, the diluted samples to be tested were added at 50 μl/well. The plates were placed in an incubator at 37° C., 5% CO2 and cultured for 68-72 hours. […]

[8] = 10 mg/kg on day 1, 8, 15, euthanized on day 29

Compound: NCCCC[C@H](CC(=O)[C@H](CC(=O)O)NC(=O)[C@H](CC(=O)O)NC(=O)Cc1ccc(CNC(=O)NCCCC[C@H](NC(=O)N[C@@H](CCC(=O)O)C(=O)O)C(=O)O)cc1)C(=O)N[C@@H](CS)C(=O)N[C@@H](CCCCNC(=O)CC[C@H](NC(=O)c1ccc(NCc2cnc3[nH]c(N)nc(=O)c3n2)cc1)C(=O)O)C(N)=O [20BK-SM09]
- tumor growth inhibition effect (in words) ([1]; 10 mg/kg): no obvious tumor growth inhibition effect
- Tumor volume ([1]; 10 mg/kg on day 1, 8, 15, D22): 2024.75 mm^3
- Tumor weight ([1]; 10 mg/kg on day 1, 8, 15, D22): 1811.5 (D22) mg
- tumor growth inhibition effect (in words) ([2]; 10 mg/kg): no obvious tumor growth inhibition effect
- Tumor volume ([2]; 10 mg/kg on day 1, 8, 15): 1158.80 mm^3
- Tumor weight [2, 8]: 914.36 mg
- Tumor weight Inhibition ratio [2, 8]: −6.80%

Compound: CC[C@H](C)[C@@H]([C@@H](CC(=O)N1CCC[C@H]1[C@H](OC)[C@@H](C)C(=O)N[C@H](C)[C@@H](O)c1ccccc1)OC)N(C)C(=O)[C@@H](NC(=O)[C@H](C(C)C)N(C)C(=O)OCc1ccc(NC(=O)C(CCCNC(N)=O)NC(=O)[C@@H](NC(=O)CCCCCN2C(=O)CC(SCC(NC(=O)[C@H](CCCCN)NC(=O)[C@H](CC(=O)O)NC(=O)[C@H](CC(=O)O)NC(=O)Cc3ccc(CNC(=O)NCCCC[C@H](NC(=O)N[C@@H](CCC(=O)O)C(=O)O)C(=O)O)cc3)C(N)=O)C2=O)C(C)C)cc1)C(C)C (stereo partly drawn) [CB-20AK, reference compound] (I: V[ξCit][PABC][NMeV]V[Dil][Dolaproine]-X1 / II: {EuK-CO}-[X2]DDK[ξC]-NH2; linker I:N-II:5 via X3)
- specific binding to FOLR1 (in words) (FOLR1): has not been detected to specifically bind to FOLR1
- IC50 ratio (MMAE/conjugate) [3]: 0.025
- IC50 ([3]; 68-72 hours, CCK8): 102 nM
- IC50 ratio (MMAE/conjugate) ([4]; 22RV1): 0.006
- IC50 ([4]; 22RV1, 68-72 hours, CCK8): 1050 nM

Compound: CC[C@@]1(O)C(=O)OCc2c1cc1n(c2=O)Cc2c-1nc1cc(F)c(C)c3c1c2[C@@H](NC(=O)COCNC(=O)CNC(=O)[C@H](Cc1ccccc1)NC(=O)CNC(=O)CNC(=O)CCCCCN1C(=O)CC(SC[C@H](NC(=O)CC[C@H](NC(=O)c2ccc(NCc4cnc5[nH]c(N)nc(=O)c5n4)cc2)C(=O)O)C(=O)N[C@@H](CCCCN)C(=O)N[C@@H](CCC(=O)O)C(=O)N[C@@H](Cc2ccccc2)C(=O)N[C@@H](CC(C)C)C(=O)N[C@@H](Cc2cnc[nH]2)C(=O)N2CCC[C@H]2C(=O)N[C@@H](CO)C(=O)N[C@@H](CCCCN)C(=O)NC(C(=O)N[C@@H](CC(=O)O)C(=O)N[C@@H](CC(C)C)C(=O)N2CCC[C@H]2C(=O)N[C@@H](CCCNC(=N)N)C(=O)O)C(C)C)C1=O)CC3 (stereo partly drawn) [CR19425] (I: {Pteroyl-γGlu}-CKEFLHPSK[ξV]DLPR-OH / II: GGFG[NHCH2OCH2CO]-Exatecan; linker I:1-II:N via Hexanoyl(6-succinimido-3yl))
- IC50 [5]: 951 nM
- IC50 [6]: 1010 nM
- IC50 [7]: 621 nM
